According to patent US20150320774A1, “FORMULATIONS OF CYCLOPHOSPHAMIDE LIQUID CONCENTRATE” (AuroMedics Pharma LLC, priority 2014, published 2015):
Read-outs that look alike come from different tables or passages of the source.

Tests used:
[1] = 500 mg/ml; for colour of solution upon storage: all temperature conditions
Experimental: Since these solvents provided more than adequate solubility, the stability of the solutions containing cyclophosphamide at a concentration of 500 mg/ml was examined.

physchem = conditions: organic solvent or mixture
Text: In this example, studies were initiated to determine the solubility of cyclophosphamide monohydrate in pharmaceutically acceptable solvents such as propylene glycol, polyethylene glycol and ethanol.

O.O=P1(N(CCCl)CCCl)NCCCO1 (stereo not shown) [cyclophosphamide monohydrate, 2-[bis(2-chloroethyl)amino]-tetrahydro-2H-1,3,2-oxazaphosphorine-2-oxide monohydrate]
degradation ([1]; PEG 400 as sole solvent): Significant degradation | colour of solution upon storage ([1]; PEG 400 as sole solvent): turning visibly yellow in color | degradation ([1]; PG as sole solvent): Significant degradation | colour of solution upon storage ([1]; PG as sole solvent): turning visibly yellow in color | solubility (physchem; ethanol): > 500 mg/mL | solubility (physchem; polyethylene glycol): > 500 mg/mL | solubility (physchem; propylene glycol): > 500 mg/mL
